In patent US20120225909A1, “INDAZOLE ANALOG” (priority 2009, published 2012):
pEC50: −log10 of the molar value.

Tests used:
[1] = molecular target: T1, human β1-adrenergic receptor (Homo sapiens, UniProt P08588); assay: Test Case 2-C: human β1-adrenergic receptor agonist activity (Cerep cellular functional GPCR, beta 1); format: cell-based; settings: concentration 10 μM, isoproterenol = 100%
T1 construct: expressed in transfected cells; host or cells: CHO (Chinese hamster ovary) cells, pcDNA3
Text: (§1) Measurement of Human β1-Adrenergic Receptor Agonist Activity

[2] = molecular target: T2, human α1A-adrenergic receptor (Homo sapiens, UniProt P35348); assay: Test Case 4-B: human α1A-adrenergic receptor agonist activity (Cerep cellular functional GPCR, alpha 1A); format: cell-based; set-up: expressed in transfected cells; settings: concentration 10 μM; for α1 receptor % of Control Agonist Response, Control; Epinephrine: epinephrine = 100%; for α1 receptor % of Control Agonist Response, Control; Norepinephrine: norepinephrine = 100%
T2 sequence (P35348 1-466): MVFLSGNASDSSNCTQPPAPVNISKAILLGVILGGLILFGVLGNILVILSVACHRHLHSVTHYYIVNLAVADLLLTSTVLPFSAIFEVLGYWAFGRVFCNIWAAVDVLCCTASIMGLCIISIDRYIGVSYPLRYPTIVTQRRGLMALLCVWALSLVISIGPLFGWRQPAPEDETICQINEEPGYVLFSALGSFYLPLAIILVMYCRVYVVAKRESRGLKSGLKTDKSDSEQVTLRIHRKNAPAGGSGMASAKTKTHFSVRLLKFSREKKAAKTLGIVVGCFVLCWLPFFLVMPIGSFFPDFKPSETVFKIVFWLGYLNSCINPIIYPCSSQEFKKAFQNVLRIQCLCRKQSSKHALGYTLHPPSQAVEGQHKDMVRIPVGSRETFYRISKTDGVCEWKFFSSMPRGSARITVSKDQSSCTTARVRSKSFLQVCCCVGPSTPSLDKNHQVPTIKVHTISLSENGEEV
Text: (§2) Measurement of Human α1A-Adrenergic Receptor Agonist Activity
The human α1A-adrenergic receptor agonist activity] can be measured by […] Functional GPCR·Gs, alpha 1A (Ref. 722-36a) listed on p. 52 of the Cerep 2008 CATALOG IN VITRO PHARMACOLOGY & ADME-TOX.

[3] = molecular target: T3, human β2-adrenergic receptor (Homo sapiens, UniProt P07550); assay: Test Case 3-C: human β2-adrenergic receptor agonist activity (Cerep cellular functional GPCR, beta 2); format: cell-based; settings: concentration 10 μM, isoproterenol = 100%
T3 construct: expressed in transfected cells; host or cells: CHO (Chinese hamster ovary) cells, pcDNA3
T3 sequence (P07550 whole entry): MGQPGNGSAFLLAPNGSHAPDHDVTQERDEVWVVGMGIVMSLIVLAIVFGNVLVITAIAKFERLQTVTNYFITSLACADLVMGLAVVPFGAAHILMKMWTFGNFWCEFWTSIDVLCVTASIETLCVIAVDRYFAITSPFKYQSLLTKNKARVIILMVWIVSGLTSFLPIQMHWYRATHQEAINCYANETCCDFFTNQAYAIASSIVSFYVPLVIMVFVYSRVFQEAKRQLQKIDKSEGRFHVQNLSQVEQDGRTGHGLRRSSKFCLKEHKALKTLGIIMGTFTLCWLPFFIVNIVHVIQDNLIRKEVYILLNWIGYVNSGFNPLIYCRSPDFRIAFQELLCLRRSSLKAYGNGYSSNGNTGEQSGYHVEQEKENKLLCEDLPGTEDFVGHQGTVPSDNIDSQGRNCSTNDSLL
Text: (§3) Measurement of Human β2-Adrenergic Receptor Agonist Activity

Male C57BL/6 Cr mice = assay: Test Case 10: mouse piloerection test; format: in vivo; settings: 10 mg/kg i.v.
Method: Male C57BL/6 Cr mice (Japan SLC) are used. The dissolved compound is administered rapidly via a caudal vein. The animal is placed on the observation stand 5, 15, 30, and 60 minutes after administration, and the state of piloerection is observed. The state of piloerection is evaluated by the following 7-level scoring system according to the examples by the method of Irwin (Psychopharmacologia 1968, 13; 222-257).
Scoring system: “Score 0”: No piloerection at all; “Score 1”: Slight piloerection (piloerection on part of the body such as the back or neck); “Score 2”: Moderate piloerection (piloerection over the entire body); “Score 3”: Marked piloerection (piloerection over the entire body, conspicuous to the extent that the skin can be seen).
“Score 0.5” is between “Score 0” and “Score 1” “Score 1.5” is between […]. “Score 2.5” is between “Score 2” and “Score 3.”

[4] = molecular target: T2, human α1A-adrenergic receptor; assay: Test Case 4-A: human α1A-adrenergic receptor agonist activity (HEK293, Ca flux, Fura-2); format: cell-based; set-up: expressed in transfected cells; host or cells: HEK293 cells, pcDNA3.1; settings: HEK293; read-out: α1A receptor I.A.
Method: as §2
The human α1A-adrenergic receptor agonist activity is measured using HEK293 cells transfected by a human α1A gene inserted in pcDNA3.1 (Invitrogen). […] After loading for 30 minutes in a CO2 incubator, the excess Fura-2AM is removed by washing twice with assay buffer. After preparing the centrifuged cells to make 5×10^6 cells/mL by assay buffer, 80 μL/well is dispensed into 96-well UV plates (made by Corning) to make cell plates. Sample plates with the test compound diluted 10-fold by assay buffer from 10^−5 to 10^−12 M and cell plates are set in an FDSS4000 (made by Hamamatsu Photonics). After preincubating for 180 seconds, measurement of fluorescence intensity (excitation wavelength 340 nm, 380 nm, measurement wavelength 500 nm) is begun at 2-second intervals. After approximately 30 seconds of measurement, 20 μL of test sample from a sample plate is added to the cell plate, and measurement is continued for another 270 seconds. The Ca flux caused by the test compound is calculated taking the difference in the maximum value of the fluorescence intensity ratio at 340 nm and 380 nm after adding the test compound and the fluorescence intensity ratio before adding the test compound as the peak height.

[5] = molecular target: T3, human β2-adrenergic receptor; assay: Test Case 3-B: human β2-adrenergic receptor agonist activity; format: cell-based; settings: read-out: β2 receptor I.A.
Method: as §3
The human β2-adrenergic receptor agonist activity is measured by the same method as in Test Case 1-B using CHO (Chinese hamster ovary) cells transfected by a human β2 gene inserted in pcDNA3 (Invitrogen).

[6] = molecular target: T1, human β1-adrenergic receptor; assay: Test Case 2-B: human β1-adrenergic receptor agonist activity; format: cell-based; settings: read-out: β1 receptor I.A.
Method: as §1
The human β1-adrenergic receptor agonist activity is measured by the same method as in Test Case 1-B using CHO (Chinese hamster ovary) cells transfected by a human β1 gene inserted in pcDNA3 (Invitrogen).

[7] = molecular target: T4, human β3-adrenergic receptor (Homo sapiens, UniProt P13945); assay: Test Case 1-B: human β3-adrenergic receptor agonist activity (cAMP-Screen, 96-well); format: cell-based; settings: for Emax: 0.5 h, read-out: β3 receptor I.A.; for pEC50: Test Case 1-B, CHO cells, cAMP
T4 construct: A full-length human β3 gene is obtained from a human genomic library (made by Clontech) using this as the probe; expressed in transfected cells; host or cells: CHO (Chinese hamster ovary) cells, pcDNA3
T4 sequence (P13945 whole entry): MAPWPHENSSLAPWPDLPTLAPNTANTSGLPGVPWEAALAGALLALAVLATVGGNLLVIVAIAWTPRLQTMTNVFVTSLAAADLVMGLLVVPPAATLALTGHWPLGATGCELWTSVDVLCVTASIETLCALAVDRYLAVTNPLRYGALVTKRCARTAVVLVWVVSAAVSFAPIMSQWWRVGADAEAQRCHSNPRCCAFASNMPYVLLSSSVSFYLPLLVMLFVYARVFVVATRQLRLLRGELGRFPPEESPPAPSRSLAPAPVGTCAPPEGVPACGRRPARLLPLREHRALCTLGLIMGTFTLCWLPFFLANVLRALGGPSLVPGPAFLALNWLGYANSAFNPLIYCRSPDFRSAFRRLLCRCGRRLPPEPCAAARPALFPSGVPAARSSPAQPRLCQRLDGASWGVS
Summary of the method: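 CHO cells stably transfected with full-length human β3 gene, serum-starved 15 min, then exposed to serially diluted compound in Ham's F-12 with 100 mmol/L HEPES and 1 mmol/L IBMX (diluent concentrations) for 30 min. Cells lysed 30 min at 37 °C; cAMP quantified by cAMP-Screen immunoassay.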

T1 sequence (P08588 whole entry): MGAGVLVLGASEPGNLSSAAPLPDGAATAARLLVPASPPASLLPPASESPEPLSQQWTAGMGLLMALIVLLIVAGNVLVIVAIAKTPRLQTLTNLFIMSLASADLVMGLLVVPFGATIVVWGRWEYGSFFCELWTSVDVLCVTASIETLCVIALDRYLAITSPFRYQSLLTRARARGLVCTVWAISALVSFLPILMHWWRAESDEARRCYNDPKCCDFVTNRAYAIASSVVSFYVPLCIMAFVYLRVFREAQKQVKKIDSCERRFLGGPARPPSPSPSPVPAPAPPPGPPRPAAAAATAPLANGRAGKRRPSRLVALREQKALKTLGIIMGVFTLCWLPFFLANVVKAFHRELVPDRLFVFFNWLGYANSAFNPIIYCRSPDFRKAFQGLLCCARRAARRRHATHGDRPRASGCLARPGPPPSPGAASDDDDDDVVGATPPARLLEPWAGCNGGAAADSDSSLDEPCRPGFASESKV

| Compound | Emax [4] | Emax [5] | Emax [6] | Emax [7] | pEC50 [7] | also measured |
| --- | --- | --- | --- | --- | --- | --- |
| Cc1n[nH]c2cc(OCCNC[C@H](O)c3cccc(NS(=O)(=O)c4ccc(Cl)c(N)c4)c3)ccc12 [ex7, (R)-3-amino-4-chloro-N-(3-(1-hydroxy-2-(2-(3-methylindazol-6-yloxy)ethylamino)ethyl)phenyl)benzenesulfonamide] | – | – | – | – | – | β1 receptor % of Control Agonist Response [1]: 15%; α1 receptor % of Control Agonist Response, Control; Epinephrine [2]: 25%; α1 receptor % of Control Agonist Response, Control; Norepinephrine [2]: 21%; β2 receptor % of Control Agonist Response [3]: 3.7% |
| Nc1ccc(F)c(S(=O)(=O)Nc2cccc([C@@H](O)CNCCOc3ccc4c(Cl)n[nH]c4c3)c2)c1 [ex242, (R)-5-amino-N-(3-(2-(2-(3-chloroindazole-6-yloxy)ethylamino)-1-hydroxyethyl)phenyl)-2-fluorobenzenesulfonamide] | – | – | – | – | – | β1 receptor % of Control Agonist Response [1]: 9.4%; α1 receptor % of Control Agonist Response, Control; Epinephrine [2]: 0.7%; α1 receptor % of Control Agonist Response, Control; Norepinephrine [2]: 0.6%; β2 receptor % of Control Agonist Response [3]: −0.2% |
| Nc1cccc(S(=O)(=O)Nc2cccc([C@@H](O)CNCCOc3ccc4c(C5CC5)n[nH]c4c3)c2)c1F [ex215, (R)-3-amino-N-(3-(2-(2-(3-cyclopropyl-indazol-6-yloxy)ethyl-amino)-1-hydroxy-ethyl)phenyl)-2-fluorobenzene-sulfonamide] | – | – | – | – | – | β1 receptor % of Control Agonist Response [1]: 23%; α1 receptor % of Control Agonist Response, Control; Epinephrine [2]: 0.1%; α1 receptor % of Control Agonist Response, Control; Norepinephrine [2]: 0.1%; β2 receptor % of Control Agonist Response [3]: 0.5% |
| COc1n[nH]c2cc(OCCNC[C@H](O)c3cccc(NS(=O)(=O)c4cc(N)ccc4F)c3)ccc12 [ex6, (R)-5-amino-2-fluoro-N-(3-(1-hydroxy-2-(2-(3-methoxyindazol-6-yloxy)ethylamino)ethyl)phenyl)benzenesulfonamide] | 0% | 7% | 10% | 84% | 9.15 | number of experimental animals matching Score 0 (no piloerection) (Male C57BL/6 Cr mice; n=4, observation time 5 min): 4; number of experimental animals matching Score 0 (no piloerection) (Male C57BL/6 Cr mice; n=4, observation time 15 min): 4; number of experimental animals matching Score 0 (no piloerection) (Male C57BL/6 Cr mice; n=4, observation time 30 min): 4; number of experimental animals matching Score 0 (no piloerection) (Male C57BL/6 Cr mice; n=4, observation time 60 min): 4 |
| Cc1cccc(S(=O)(=O)Nc2cccc([C@@H](O)CNCCOc3ccc4c(C)n[nH]c4c3)c2)c1 [ex49, (R)-N-(3-(1-hydroxy-2-(2-(3-methylindazol-6-yloxy)ethylamino)ethyl)phenyl)-3-methyl] | 0% | -3% | 10% | 96% | 8.60 | – |
| Cc1n[nH]c2cc(OCCNC[C@H](O)c3cccc(NS(=O)(=O)c4ccccc4N)c3)ccc12 [ex53, (R)-2-amino-N-(3-(1-hydroxy-2-(2-(3-methylindazol-6-yloxy)ethylamino)ethyl)phenyl) benzenesulfonamide] | 0% | 2% | 14% | 98% | 8.39 | – |
| CC(C)c1n[nH]c2cc(OCCNC[C@H](O)c3cccc(NS(=O)(=O)c4cccc(N)c4)c3)ccc12 [ex231, (R)-3-amino-N-(3-(1-hydroxy- ? -(2-( ? iso-propylindazol- ? - yloxy)ethylamino)ethyl)phenyl) benzene ? fonamide] | 0% | 3% | 18% | 124% | 9.70 | – |
| CNc1cccc(S(=O)(=O)Nc2cccc([C@@H](O)CNCCOc3ccc4c(C)n[nH]c4c3)c2)c1 [ex239, (R)—N-(3-(1-hydroxy-2-(2-(3-methylindazol-6-yloxy)ethylamino)ethyl)phenyl)-3-(methylamino)benzenesulfonamide] | 0% | 2% | 15% | 108% | 7.80 | – |
| CCc1n[nH]c2cc(OCCNC[C@H](O)c3cccc(NS(=O)(=O)C4CC4)c3)ccc12 [ex124, (R)-N-(3-(2-(2-(3-ethylindazol-6-yloxy)ethylamino)-1-hydroxyethyl)phenyl)-cyclopropanesul-fonamide] | 0% | -1% | -6% | 52% | 7.89 | number of experimental animals matching Score 0 (no piloerection) (Male C57BL/6 Cr mice; n=4, observation time 5 min): 2; number of experimental animals matching Score 0.5 (Male C57BL/6 Cr mice; n=4, observation time 5 min): 1; number of experimental animals matching Score 1 (slight piloerection) (Male C57BL/6 Cr mice; n=4, observation time 5 min): 1; number of experimental animals matching Score 0.5 (Male C57BL/6 Cr mice; n=4, observation time 15 min): 3; number of experimental animals matching Score 1 (slight piloerection) (Male C57BL/6 Cr mice; n=4, observation time 15 min): 1; number of experimental animals matching Score 0 (no piloerection) (Male C57BL/6 Cr mice; n=4, observation time 30 min): 2; number of experimental animals matching Score 0.5 (Male C57BL/6 Cr mice; n=4, observation time 30 min): 2; number of experimental animals matching Score 0 (no piloerection) (Male C57BL/6 Cr mice; n=4, observation time 60 min): 2; number of experimental animals matching Score 0.5 (Male C57BL/6 Cr mice; n=4, observation time 60 min): 2 |
| CCc1n[nH]c2cc(OCCNC[C@H](O)c3cccc(NS(=O)(=O)c4cccc(C)c4)c3)ccc12 [ex126, (R)-N-(3-(2-(2-(3-ethylindazol-6-yloxy)ethylamino)-1-hydroxyethyl)phenyl)-3-methylbenzene-sulfonamide] | 0% | 1% | 8% | 85% | 7.85 | – |
| Cc1n[nH]c2cc(OCCNC[C@H](O)c3cccc(NS(=O)(=O)c4ccccc4O)c3)ccc12 [ex241, (R)-2-hydroxy-N-(3-(1-hydroxy-2-(2-(3-methylindazol-6-yloxy)ethylamino)ethyl)phenyl)benzenesulfonamide] | 0% | 8% | 9% | 94% | 7.37 | – |
| O=S(=O)(Nc1cccc([C@@H](O)CNCCOc2ccc3c(Cl)n[nH]c3c2)c1)C1CC1 [ex152] | 8% | 15% | 3% | 104% | 7.66 | – |
